In ChEMBL document CHEMBL1795311, “Synthesis, antiproliferative activity, and mechanism of action of a series of 2-{[(2E)-3-phenylprop-2-enoyl]amino}benzamides” (Eur J Med Chem, 2011) one finds inhibition of growth and IC50 data, which are given here for 10 compounds.

Test [1] relates to K562. The experiment in a line: Antiproliferative activity against human K562 cells at 10 uM after 48 hrs by trypan blue assay. The test is classed as functional. To be noted: K562, 48 h, read-out: GI.
Test [2] concerns K562. The experiment in a line: Growth inhibition of human K562 cells after 48 hrs by trypan blue assay. The class given is functional, cell-based. The following applies: K562, 48 h.

SMILES strings stand for the structures. Bounds are passed on as bounds.

Usually IC50 stands for the midpoint of a concentration-inhibition curve. The low end stands for greater potency in that assay, the high end for weaker potency in that assay.

Take `NC(=O)c1cc(Br)ccc1NC(=O)/C=C/c1cccc(Cl)c1`: the inhibition of growth at 10 µM in the test with K562 [1] was determined as 25.5%. Further, in the test with K562 [2], the IC50 is more than 10 µM.

Consider `NC(=O)c1cc(Br)ccc1NC(=O)/C=C/c1cccc(Br)c1`, for which the inhibition of growth at 10 µM with K562 [1] was determined as 45.9%. The compound further displayed an IC50 with K562 [2] of more than 10 µM.

Turning to `NC(=O)c1cc(Cl)ccc1NC(=O)/C=C/c1ccccc1Cl`, the inhibition of growth at 10 µM in the test with K562 [1] came to 58%. In the test with K562 [2], the IC50 is 7.4 µM.

For `NC(=O)c1cc(Cl)ccc1NC(=O)/C=C/c1ccccc1Br`, the inhibition of growth at 10 µM in the test with K562 [1] amounted to 49%. This compound returned a 50% inhibitory concentration (IC50) with K562 [2] of 10 µM.

Consider `NC(=O)c1cc(Br)ccc1NC(=O)/C=C/c1ccccc1Cl`, for which the inhibition of growth at 10 µM with K562 [1] amounted to 59%. For the same compound, the midpoint of inhibition in the test on K562 [2], the IC50, lay at 8.1 µM.

With `Cc1cccc(/C=C/C(=O)Nc2ccc(Br)cc2C(N)=O)c1`, in the test on K562 [1], the inhibition of growth at 10 µM was found to be 43.8%. This compound also returned an IC50 in the test on K562 [2] of more than 10 µM.

In the case of `Cc1ccccc1/C=C/C(=O)Nc1ccc(I)cc1C(N)=O`, in the test with K562 [1], the inhibition of growth at 10 µM stood at 26.3%. In the test with K562 [2], this compound came in with an IC50 of more than 10 µM.

With `Cc1ccccc1/C=C/C(=O)Nc1ccc(Cl)cc1C(N)=O`, the inhibition of growth at 10 µM in the test on K562 [1] stood at 52.2%. Besides, the IC50 with K562 [2] amounted to 9.5 µM.

For the compound `Cc1cccc(/C=C/C(=O)Nc2ccc(Cl)cc2C(N)=O)c1`, the inhibition of growth at 10 µM with K562 [1] stood at 37.8%. In the test with K562 [2], the IC50 was more than 10 µM.

With `NC(=O)c1cc(Cl)ccc1NC(=O)/C=C/c1cccc(Cl)c1`, the inhibition of growth at 10 µM in the test with K562 [1] stood at 28.2%. This compound registered an IC50 with K562 [2] of more than 10 µM.
